Where a name gives a salt, the structure may show the parent alone.

One data set relates to β2-adrenergic receptor. Conditions: reported in the literature; cited from earlier work.
The test system of data set [1] is U-87 gliospheres xenografts. The experiment in a line: Xenograft of U-87 gliospheres in NSG mice. In kind it is in vivo. Conditions: 3 mg/Kg body weight, 5 consecutive days immediately after xenograft, intraperitoneal. The procedure:
FIG. 4.—ICI 118,551 and Propranolol delay the tumor progression of U-87 xenografts in NSG immunodeppressed mice. A Xenograft using U-87 adherent cells: Mice (n=30) were inoculated with 10^6 cells of U-87 glioblastoma cell line, in the flank, as xenografts. Tumor volume was measured every 3 days. In A, when tumors reached around 100 mm^3 volume, mice were divided in 3 groups (n=9-10). One group was treated daily with 10 mg/Kg body weight with propranolol, another group with the same dose of ICI118,551, and the third group only with vehicle (DMSO). Drugs were intraperitoneally injected. […] B Xenograft using U-87 gliospheres: Mice were inoculated with 10^5 spheroids from the glioblastoma cell line U-87. […] The tumors were measured from the moment they were big enough to be sized.
In the case of B, mice were divided in 3 groups of 10 mice, and were treated the first 5 days after xenograft establishment with intraperitoneal injection of propranolol, or ICI118,551 at 3 mg/Kg body, or vehicle. […] From this moment on, tumor size was measured every 2-3 days along 4 weeks, and then the mice were sacrificed.
On the other hand, xenografts using U-87 gliospheres were also used. […] The tumors were measured from the moment they were big enough to be sized.

The test system of a further data set is U-87 stem cells. The experiment in a line: Extreme limited dilution assay (ELDA) for oncosphere formation. The format is cell-based, human. Conditions: different concentrations; spheres quantified at 14 days. The procedure: (§1) A: photographs of gliospheres formation after 72 hours of drug treatment. U-87 cells were cultured in medium for gliosphere formation, and either treated with vehicle (control, on the left), or with ICI 118,551, and propranolol at different concentrations from 10 to 100 μM. […] B: Limit dilution assay experiment (ELDA) for oncosphere formation in the presence of different concentrations of ICI 118,551 and propranolol.
(§2) Following the protocol described elsewhere (Diaz-Guerra, E.; Lillo, M. A.; Santamaria, S.; Garcia-Sanz, J. A., Intrinsic cues and hormones control mouse mammary epithelial tree size. FASEB J 2012, 26 (9), 3844-53). Cells were detached from the plate with trypsin (Invitrogen) and plated in complete medium (DMEM/F-12 medium with GlutaMAX) supplemented with B27 (Gibco), 10 ng/ml epidermal growth factor (EGF: Invitrogen) and 10 ng/ml basic fibroblast growth factor (bFGF: Millipore) and they were maintained at 37° C. in 5% CO2. For the ELDA assay cells were dissociated to single cells with trypsin, and seeded at different dilutions (from 100 to 10 for U-87 cells) in sphere complete media following procedures described in Ponti, D et al., (Cancer Res 2005, 65 (13), 5506-11.). The final number of spheres was quantified at 14 days, and the final data and statistical significance was obtained with ELDA software (Hu, Y. et al J Immunol Methods 2009, 347 (1-2), 70-8). […]

The test system of data set [2] is U-87 glioblastoma cell line. The experiment in a line: RT-qPCR of stemness and neural differentiation marker mRNAs in U-87. In kind it is cell-based, human. Conditions: 48 hours; mRNA by RT-qPCR; dose-dependent. The procedure:
FIG. 3.—ICI 118,551 and propranolol decreased stemness biomarker expression in U-87 glioblastoma cell line, but increased the neural differentiation markers. A: The treatment of U-87 with ICI-118,551 and propranolol during 48 hours decreases the expression of stemness associated genes as GD3 synthase, ALDH1, Prominin (CD133), Sox2 and Nanog, whereas B: favors the expression of genes involved in neural cell differentiation (MAP2, GFAP and Nestin). Expression of the corresponding mRNAs was measured by RT-qPCR.
(§3) RNAt was isolated using the Direct-zol RNA MiniPrep Kit (ZymoResearch) from U-87 cells washed with PBS, scraped off the plates and spun down. The pellet was treated with the Tri Reagent and homogenized for 5 min at room temperature before using the MiniPrep Kit as per instructions. The quality and concentration of the RNAt was evaluated by measuring the absorbance at 260, 230 and 280 nm with an ND-1000 spectrophotometer (NanoDrop Technologies, Wilmington, DE, USA). In all cases, the expected 260/280 (˜2.0) and 260/230 (2.0-2.2) ratio values accepted for pure RNA were obtained. To detect the two target miRs, 0.5 μg of the RNAt extracted from the cells was used for hybridization prior to measurement on the dual amperometric platform.
(§4) The qScript microRNA Quantification System (Quanta BioSciences, Inc., Gaithersburg, MD, USA) was used to assess miR-21 and miR-205 expression. In brief, cDNA was synthesized using the qScript microRNA cDNA Synthesis Kit, using 10 ng of initial RNA per PCR reaction. The PCR conditions consisted of an initial activation at 50° C. for 2 min, followed by 40 cycles of 95° C. for 5 s, and 60° C. for 30 s in LightCycler 480 Real-Time PCR System (Roche). The Ct (threshold cycle) value for each primer was normalized to that of RNU6. To assess gene expression, cDNA was synthesized with the transcriptor first strand cDNA synthesis Kit (Roche) under the following PCR conditions: 40 amplification cycles of 95° C. for 10 seconds, 60° C. for 30 seconds and 72° C. for 30 seconds. ACTB was used as a reference gene for normalization and the real-time PCR reactions were performed in triplicate using the PerfeCTa SYBR Green SuperMix (Quanta BioSciences) for miRNAs and the FastStart Universal SYBR Green Master (Roche) for gene expression. The expression level of each gene was determined by the relative standard curve method and the primer sequences for target genes were obtained from the Universal ProbeLibrary Assay Design Center.
However, mRNA from genes involved in neural cell differentiation, such as MAP2, GFAP and nestin (FIG. 3B), were increased in their expression (FIG. 3B). The expression of the corresponding mRNAs was measured by RT-qPCR.

The test system of a further data set is U-87 gliospheres. The experiment in a line: Gliosphere formation of U-87 cells under drug treatment. The format is cell-based, human. Conditions: 10 to 100 μM; 72 hours of drug treatment. How it is done:
as §1, §2

The next data set concerns U-87 xenografts. The experiment in a line: Xenograft of U-87 adherent cells in NSG mice. In kind it is in vivo. Conditions: intraperitoneal; for decrease in the tumor volume: 10 mg/Kg body daily, from tumor volume around 100 mm^3, versus vehicle; for adverse effects: 10 mg/Kg body weight daily, NSG mice. How it is done:
FIG. 4.—ICI 118,551 and Propranolol delay the tumor progression of U-87 xenografts in NSG immunodeppressed mice. A Xenograft using U-87 adherent cells: Mice (n=30) were inoculated with 10^6 cells of U-87 glioblastoma cell line, in the flank, as xenografts. Tumor volume was measured every 3 days. In A, when tumors reached around 100 mm^3 volume, mice were divided in 3 groups (n=9-10). One group was treated daily with 10 mg/Kg body weight with propranolol, another group with the same dose of ICI118,551, and the third group only with vehicle (DMSO). Drugs were intraperitoneally injected. […] B Xenograft using U-87 gliospheres: Mice were inoculated with 10^5 spheroids from the glioblastoma cell line U-87. Mice were divided in 3 groups of 9-10 animals and treated immediately after xenograft for 5 consecutive days with either 3 mg/Kg body weight of propranolol, or ICI 118,551, or only vehicle. The tumors were measured from the moment they were big enough to be sized.
Male 7-8 weeks old NOD scid gamma (NSG) mice were injected in the dorsal flank with a total of either 10^6 cells of U-87 cell line (A), or with 10^5 cells coming from disaggregated gliospheres (B). In the case of A, when tumor size reached 100 mm^3 volume, mice were divided at random in 3 groups, of 9/10 mice each. One group was treated with intraperitoneal daily injection of 10 mg/Kg body of propranolol, other group with the same amount of ICI118,551, and finally, a control group was injected with vehicle. Tumor size was measured by a caliper every 2-3 days. Mice were sacrificed when tumor volume average of the control group reached an end point established on our ethical procedures.
Xenografts were made using U-87 adherent cells: Mice (n=30) were inoculated with 10^6 cells of U-87 glioblastoma cell line, in the flank, as xenografts. Tumor volume was measured every 3 days. When tumors reached around 100 mm^3 volume, mice were divided in 3 groups (n=9-10). One group was treated daily with 10 mg/Kg body weight with propranolol, another group with the same dose of ICI118,551, and the third group only with vehicle (DMSO). Drugs were intraperitoneally injected.

The subject of data set [3] is U87 Glioblastoma Cell Line. The experiment in a line: Expression of miR-21 and its targets PDCD4 and PTEN in U87 cells. The format is cell-based, human. Conditions: 48 hours, increasing amounts. The procedure:
FIG. 5. […] Furthermore, ICI increases the expression levels of […] targets such as PDCD4-proapoptotic agents1 (middle)—and PTEN—a glioblastoma suppressor (right).
as §3
as §4, with “ACTB was used as a reference gene for normalization and the real-time PCR reactions were performed in triplicate using the PerfeCTa SYBR Green SuperMix (Quanta BioSciences) for miRNAs and the FastStart Universal SYBR Green Master (Roche) for gene expression.” left out, “Center. […]” for “Center.”

Data set [4] has as its system human glioblastoma cell line U-87. Kind of data set: U-87 cell viability by luminescence (ATP-Glo kit, Promega). In kind it is cell-based. From the text: FIG. 1.—ICI 118,551 is active as an antitumoral agent decreasing cell viability in the glioblastoma cell line and including the stem cell subpopulation. A: U-87 cell line expresses beta-adrenergic receptors type 2, as shown by confocal microscopy using a monoclonal antibody against human β2 adrenergic receptors (Abcam). B: ICI-118551 decreases viability of the human glioblastoma cell line U-87 either when grown in liquid suspension as oncospheres (gliospheres, stem cells) or in adhesion. Viability was quantified by luminescence using the ATP-Glo kit from Promega. C. β2-adrenergic receptor expression in the human glioblastoma cell line U87 was confirmed by mRNA expression by quantitative PCR in 3D cultures as gliospheres (HUVEC as positive control for β2-adrenergic receptor expression).

For the molecule `COc1ccc(OC)c(C(O)C(C)NC(C)(C)C)c1` (racemic) [Butoxamine, DL-erythro-α-(2,5-dimethoxyphenyl)-β-t-butyl aminopropanol hydrochloride], the β2/β1 selectivity ratio result in the data set with β2-adrenergic receptor is listed as “at least 17”.

With `CC(C)NCC(O)COc1cccc2ccccc12` (stereo not shown) [propranolol], the “rate of tumor growth versus vehicle treated mice” value in data set [1] was “significant delay”. In addition, in the data set with U-87 stem cells, the “ELDA dilution factor compared to control” value is “increases”. In addition, in data set [2], the “expression of neural cell differentiation genes MAP2, GFAP and nestin” value is given as “increased”; the “expression of stemness associated genes GD3 synthase, ALDH1, prominin (CD 133), Sox2 and nanog” value is “decreased significantly”. Further, the “inhibition of gliosphere formation” value in the data set on U-87 gliospheres is recorded as “dose-dependent inhibition”. Besides, in the data set with U-87 xenografts, the “decrease in the tumor volume” value is on record as “around 30%” and the adverse effects entry is “no adverse effects observed”.

Turning to `Cc1ccc(OCC(O)C(C)NC(C)C)c2c1CCC2` [ICI 118,551, erythro-D,L-1(methylinden-4-yloxy)-3-isopropylaminobutan-2-ol], the “rate of tumor growth versus vehicle treated mice” value in data set [1] was “significant delay”. In the data set on U-87 stem cells, the “ELDA dilution factor compared to control” value is “increases”. For the same molecule, in data set [2], the “expression of neural cell differentiation genes MAP2, GFAP and nestin” value was “increased”; the “expression of stemness associated genes GD3 synthase, ALDH1, prominin (CD 133), Sox2 and nanog” value is “decreased significantly”. For the same molecule, the “inhibition of gliosphere formation” value with U-87 gliospheres is “dose-dependent inhibition”. Moreover, in data set [3], the “expression level of PDCD4” value was “increases” and the “expression level of PTEN” value is on record as “increases”. Also, the mRNA-21 expression entry in data set [3] (compared with Propranolol) is on record as “notably decreased”. Further, in the data set with U-87 xenografts, the “decrease in the tumor volume” value is listed as “around 30%” and the adverse effects result is given as “no adverse effects observed”. Besides, the “differential sensitivity to the drug, adhesion versus 3D gliospheres” value in data set [4] (2D cells in adhesion compared with 3D gliospheres in suspension) is given as “more sensitive the cells grown in adhesion than the 3D gliospheres”. Besides, in data set [4] (3D gliospheres, low μM concentrations), the “viability of the cancer stem cells” value is on record as “strongly affects the viability”. Besides, the “viability of U-87” value in data set [4] (different doses, grown in liquid suspension as oncospheres (gliospheres) or in adhesion, ATP-Glo luminescence) was “decreased the viability”. Besides, the β2/β1 selectivity ratio result in the data set on β2-adrenergic receptor is listed as “at least 123”.

The record behind these values is patent US12622884B2, “Treatment and prevention of glioblastoma” (CONSEJO SUPERIOR DE INVESTIGACIONES CIENTÍFICAS, priority 2018, dated 2026).
